Where “and” joins values, the source holds several entries; their conditions need not be identical. Equal values may be shown once. Numbers after ± are expanded uncertainties.
Experiment: mn = molality of the nth substance listed, in mol/kg
Conditions: 298.15 K, 100 kPa, Liquid, Buoyancy - hydrostatic balance

Row | mass density (m1 = 1) | mass density (m1 = 2) [kg/m3] | SMILES | mass density (m1 = 1.05) | mass density (m1 = 1.62) [kg/m3] | mass density (m1 = 2.21) [kg/m3] | mass density (m1 = 2.22) [kg/m3] | mass density (m1 = 2.84) [kg/m3] | mass density (m1 = 2.86) [kg/m3] | mass density (m1 = 3.51) [kg/m3] | mass density (m1 = 6.68) [kg/m3]
1 | 1043 ± 14 kg/m3 and 1041 ± 14 kg/m3 | 1081 ± 14 | [Na+].[OH-] [sodium hydroxide] + O |  |  |  |  |  |  |  | 
2 |  |  | [Na+].[O-][Cl+3]([O-])([O-])[O-] [sodium perchlorate] + O | 1076 ± 14 kg/m3 and 1072 ± 15 kg/m3 | 1110 ± 14 | 1148 ± 14 | 1145 ± 14 | 1185 ± 16 | 1180 ± 16 | 1223 ± 14 | 1360 ± 14

Source: the NIST ThermoML archive (doi:10.1016/j.jct.2018.08.037)
